According to US20090143417A1, “METHODS OF TREATING PAIN” (The University of Queensland, priority 2004, published 2009):

Tested on: naïve rats

## CN1CC[C@]23c4c5ccc(O)c4O[C@H]2[C@@H](O)C=C[C@H]3[C@H]1C5 [morphine]
Morphine ED20 dose 2.8 μmol/kg s.c. alone (FIG. 1)
  percent of the maximal pain relief effect: 20%
Morphine single bolus 10 μmol/kg s.c., at one hour, naïve rats (FIG. 1)
  pain relief from a noxious thermal stimulus using the tail flick test: near maximal pain relief
s.c., naïve rats
  ED20 of morphine (antinociception, tail flick): ~2.8 µmol/kg
Single s.c. bolus administered alone: 2 at 0.04 nmol/kg, morphine at 2.8 μmol/kg
  peak levels of antinociception, % of the maximum possible effect: 21 % NPE
